Test [1] has as its target purified capsid protein assembly domain, Cp149 (Hepatitis B virus subtype adyw, UniProt P03147). In words: Capsid assembly assay (size exclusion chromatography). Format: biochemical, HBV. The conditions noted are these: 10 μM Cp149 dimer, 20 μM compound, 24 h at room temperature, versus capsid control. On the procedure:
Stimulation of HBV virus assembly is a known property of CAM molecules. As structural changes can have unpredictable effects on function, a capsid assembly assay was conducted with exemplary rCAM DP41-0012 to evaluate whether the construct retained CAM activity. Relative peak HBV capsid volume following exposure to the exemplary rCAM was determined in comparison to dimer, DMSO, and capsid controls, along with CAM compounds bersacapavir and NVR-3-778.
To test capsid assembly, samples or controls were incubated for 20 minutes with purified capsid protein assembly domain, Cp149, so that final conditions were 10 μM Cp149 dimer 20 μM compound or control 2% DMSO 50 mM TrisHCl pH 7.5. To this mixture was added an equal volume of 600 mM NaCl 50 mM TrisHCl pH 7.5. Reactions were equilibrated for 24 h at room temperature and the resolved by size exclusion chromatography using a 10/300 Superose6 column running at 0.5 ml/minute. The running buffer for this column was 50 mM TrisHCl 300 mM NaCl. Elution profiles were recorded by absorbance at 280 nm. Integrated capsid peaks eluting between 16 and 20 minutes and dimer peaks eluting between 34 and 39 minutes were reported.
In general terms: SEC sorts molecules by how far they enter the pores of the column.

Test [2] deals with Supercoiled plasmid. Briefly: In vitro DNA nicking assay. In kind it is biochemical, E. coli. The conditions noted are these: 10 μM CuCl2, 3 hours at room temperature (21° C.) in the dark. On the procedure: The capacity of rCAM compounds to cause DNA damage was evaluated using an in vitro DNA nicking assay. Specifically, the double stranded DNA (dsDNA) nicking activity of exemplary rCAM DP41-0012 was compared to CAM compounds bersacapavir and NVR-3-778, and DMSO controls.
Supercoiled plasmid, the substrate for this assay, was purified from E. coli, using a Qiagen miniprep kit. A “master mix” of 3 ng/μl Miniprep DNA, 10 μM CuCl2, 20 mM TrisHCl pH7.5 was prepared. Samples included 99 μl of master mix plus 1 μl of compound or control. Reactions were incubated for 3 hours at room temperature (21° C.) in the dark. Aliquots of the reactions (20 μl) were resolved on a 0.8% TAE agarose gel with 1/20,000 SYBR Safe stain electrophoresed at 80V for 90 minutes. The gel was visualized on a ChemidocMP in fluorescein blot mode.

The target in test [3] is Cp149 dimers (Hepatitis B virus subtype adyw, UniProt P03147). In words: Cp149 dimer assembly with rCAM visualized by transmission electron microscopy. To be noted: dimer:rCAM 1:5, NaCl 300 mM, overnight at 25° C. In kind it is biochemical, HBV. As for the experimental part:
Cp dimers were assembled with HAP-PEG2-CBL and HAP-PEG4-CBL to verify the HAP backbone's ability to bind the dimer-dimer interface. Cp149 dimers were mixed with each rCAM in a 1:5 ratio (dimer:rCAM). Assembly was induced by addition of NaCl (300 mM) followed by incubation overnight at 25° C. Assembly products were visualized via transmission electron microscopy (TEM) (FIG. 10). Assembly in NaCl alone led to normal spherical capsids (FIG. 10A). […] Boume, C., et al., J Virol 82:10262, 2008.

Test [4] deals with in vitro transcribed pregenomic HBV RNA (pgRNA). In words: pgRNA activity assay by denaturing agarose gel electrophoresis. In kind it is biochemical. The conditions noted are these: for RNA signal on gel, free pgRNA: 100 μM; for RNA signal on gel, free pgRNA / RNA bands on gel, free pgRNA: 1% or 10% DMSO; for RNA bands on gel, free pgRNA / pgRNA band on denaturing agarose gel: 900 μM; for pgRNA band on denaturing agarose gel: 1 hour.

Test [5] has the same test system. In kind it is biochemical. The conditions noted are these: for effect on pgRNA amplification / RNA transcription (RT-qPCR, Cp gene): either temperature (25° C. or 37° C.). (In qPCR the cycle at which signal appears reflects the starting amount.)
Where [6] appears, read: 25° C. and 37° C. (both temperature conditions).

Read-outs that look alike come from different tables or passages of the source.

Sequence of Cp149 dimers (P03147 1-149): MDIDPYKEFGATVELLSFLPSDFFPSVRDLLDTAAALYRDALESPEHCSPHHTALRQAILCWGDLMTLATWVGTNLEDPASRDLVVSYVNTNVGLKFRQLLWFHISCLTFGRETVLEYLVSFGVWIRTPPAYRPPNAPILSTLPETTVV
Sequence of purified capsid protein assembly domain, Cp149 (P03147 1-149): as above

Turning to `Cn1cc(S(=O)(=O)NCCNC(=O)c2cc(O)c(O)c(O)c2)cc1C(=O)Nc1ccc(F)c(C#N)c1` [DP41-0012, N-(3-cyano-4-fluorophenyl)-1-methyl-4-(N-(2-(3,4,5-trihydroxybenzamido)ethyl)-sulfamoyl)-1H-pyrrole-2-carboxamide], the “relative peak capsid volume” value in test [1] is given as “exceeded that of the capsid control”. Moreover, the “plasmid DNA form seen on agarose gel (dsDNA nicking activity)” value (shortened to “plasmid DNA form seen on agarose gel”) in test [2] is “DNA band corresponding to the size of a nicked circle”.

Take `COC(=O)C1=C(CN2CCN(C(=O)CCOCCOCCOC(=O)CCCc3ccc(N(CCCl)CCCl)cc3)CC2)NC(c2ccccn2)=NC1c1ccc(F)cc1Cl` (stereo not drawn) [HAP-PEG2-CBL, Methyl 6-((4-(3-(2-(2-((4-(4-(bis(2-chloroethyl)amino)phenyl)butanoyl)oxy)ethoxy)ethoxy)propanoyl)piperazin-1-yl)methyl)-4-(2-chloro-4-fluorophenyl)-2-(pyridin-2-yl)-1,4-dihydropyrimidine-5-carboxylate]: the “assembly products seen by TEM” value in test [3] was “both spherical capsids, faceted/broken capsids, and flat, aberrant structures”. In test [4] (37° C.), the “RNA signal on gel, free pgRNA” value was “slight reduction in RNA signal” and the “RNA bands on gel, free pgRNA” value is on record as “almost complete dissipation of RNA bands”.

For `COC(=O)C1=C(CN2CCN(C(=O)CCOCCOCCOCCOCCOC(=O)CCCc3ccc(N(CCCl)CCCl)cc3)CC2)NC(c2ccccn2)=NC1c1ccc(F)cc1Cl` (stereo not drawn) [HAP-PEG4-CBL], the “assembly products seen by TEM” value in test [3] is “floret-shaped, aberrant particles”. Moreover, in test [4] (37° C.), the “RNA signal on gel, free pgRNA” value is “slight reduction in RNA signal” and the “RNA bands on gel, free pgRNA” value was “almost complete dissipation of RNA bands”.

As to `O=C(Nc1cc(F)c(F)c(F)c1)c1ccc(F)c(S(=O)(=O)N2CCC(O)CC2)c1` [NVR-3-778], the “plasmid DNA form seen on agarose gel” value in test [2] is listed as “supercoiled plasmid substrate was detectable”.

Take `CN(C)c1nc(N(C)C)nc(N(C)C)n1` [altretamine]: the “effect on pgRNA amplification / RNA transcription (RT-qPCR, Cp gene)” value in test [5] (900 μM, 1 hour) is listed as “does affect RNA transcription”.

Turning to `C[C@H](NS(=O)(=O)c1cc(C(=O)Nc2ccc(F)c(C#N)c2)n(C)c1)C(F)(F)F` [bersacapavir], the “plasmid DNA form seen on agarose gel” value in test [2] is recorded as “supercoiled plasmid substrate was detectable”.

Consider `O=C(O)CCCc1ccc(N(CCCl)CCCl)cc1` [chlorambucil], for which the “pgRNA band on denaturing agarose gel” value in test [4] (setting [6]) is on record as “completely dissipate RNA”. Further, the “reduction in RNA amplification (RT-qPCR, Cp gene)” value in test [5] (900 μM, 1 hour, 25° C.) was “approximately 1 log”. Also, in test [5] (900 μM, 1 hour, 37° C.), the “decrease in RNA levels (RT-qPCR, Cp gene)” value was found to be 4 log.

For the compound `N.N.[Cl][Pt][Cl]` [cisplatin], the “pgRNA band on denaturing agarose gel” value in test [4] (setting [6]) was “faster migrating and smeared bands”. Besides, in test [5], the “decrease in RNA levels (RT-qPCR, Cp gene)” value is 3 log and the “reduction in RNA amplification (RT-qPCR, Cp gene)” value was “approximately 1 log”.

Consider `CO[C@@]12[C@H](COC(N)=O)C3=C(C(=O)C(C)=C(N)C3=O)N1C[C@@H]1N[C@@H]12` [mitomycin C], for which, in test [5] (900 μM, 1 hour), the “effect on pgRNA amplification / RNA transcription (RT-qPCR, Cp gene)” value is given as “does affect RNA transcription”.

For the compound phleomycin, the “pgRNA band on denaturing agarose gel” value is listed as “completely disappeared” in test [4] (37° C.) and “reduced in width” in test [4] (room temperature (25° C.)). Moreover, the “effect on pgRNA amplification / RNA transcription (RT-qPCR, Cp gene)” value in test [5] (900 μM, 1 hour) is “does not suppress pgRNA amplification appreciably”.

Values taken from patent US20260284203A1 (priority 2023, published 2026).
